{
  "source": "patent US8877773B2",
  "about": "“Methods for treating chronic obstructive pulmonary disease” (Indiana University Research and Technology Corporation, priority 2009, dated 2014)",
  "type_in_all_cases": "in vivo, rat",
  "key": {"[1]": {"tested_on": "panic-prone (1-AG treated) rats", "test": "Defensive burying (defensive shock) test after NaLac challenge in panic-prone rats", "conditions": "1-AG+NaLac rats", "description": "The defensive burying test is a validated test of experimental anxiety and defensive-like behavior in rats. For four consecutive days before defensive burying test (days 3, 4, 5 and 6 post 1-AG onset), rats were acclimated to the testing apparatus by placing them for 10 min in the testing cage (a polycarbonate rat housing cage, 30.5 cm width×30.5 cm height×61 cm length) with 2.5 cm of bedding covering the floor and a small hole centered on a short dimension of the cage 2.5 cm above the bedding to accommodate the deactivated shock probe. The shock probe was 1 cm in diameter and extended 6 cm into the cage. Along the entire length of the exposed probe, 2 un-insulated wires were wrapped in parallel (not touching) so that the rat could not touch the probe without getting a shock. […] The shock intensity was set at 0.7 mA for the entire duration of testing so that the rat received a shock whenever the prod was contacted with its forepaws or snout. […] Behavioral assessments were made using software (ODLog Macropod Software for Windows, version 2.5.2) with different keystrokes coupled to each defensive behavior to accurately measure incidence and duration of each. The repertoire of behavioral reactions during a defensive burying test is well delineated and catalogued in rats. These behaviors include: 1) burying behavior, defined as duration spent pushing, shoveling, flicking and digging sawdust towards and around the prod with rapid movements of the snout and forepaws; 2) Freezing, defined as immobility with the body motionless; 3) probe exploration, defined as time spent on half of cage with probe; 4) rearing, defined as raising the body on the hind limbs in a vertical position; 5) ambulations, defined as number of times rat crossed from side of cage with probe to other; and also 5) grooming, defined as face washing, scratching, tail biting and licking of the body.\nOn day 1 adult male Sprague-Dawley rats (n=3/group) were anaesthetized and had osmotic minipumps (previously filled with 1-AG) stereotaxically implanted unilaterally into the DMH/PeF. […] Behavioral assessments were made using software (ODLog Macropod Software for Windows, version 2.5.2) with different keystrokes coupled to each defensive behavior to accurately measure incidence and duration of each."}, "[2]": {"tested_on": "rats exposed to hypercarbic gas", "test": "Hypercarbic gas (20% CO2) challenge: MAP, HR, locomotor activity, fecal pellets", "description": "Prior to surgery, rats were anesthetised with a nose cone connected to an isoflurane system (MGX Research Machine; Vetamic, Rossville Ind., USA) during the surgery. […] Briefly, cardiovascular responses were measured by a femoral arterial line connected to a telemetric probe that contained a pressure transducer [Cat. no. C50-PXT, Data Sciences International (DSI), St. Paul, Minn., USA]. DSI dataquest software was used to monitor and record MAP and HR. For the duration of each experiment, MAP and HR were recorded continuously in freely moving conscious rats. Data were analyzed during the period 5 min prior to, 5 min during, and 5 min following the gas challenges. The data reported are changes in HR and MAP, expressed in 1 min bins, relative to the average of the baseline measurement (t−5 min to t−1 min) from each rat.\nFlow cages (12 in. width×12 in. height×24 in. length) were custom built using Plexiglas®. When the lid of the cage was latched, gases could only enter the cage through an inlet connector (for the gas infusion) and could only exit the cage through an outlet connector. The gas flow into the cages was controlled using a 2-stage regulator (Praxair, Inc., Danbury, Conn., USA) at a pressure of 0.6 Bar.\nOn day 1, rats (n=3/group) were selected from their home cages and placed into experimental cages containing atmospheric air. […] Fecal pellets were counted in cages at the end of gas challenges. In order to assess anxiety-like behavioural responses following exposure to hypercarbic gas, rats were immediately transferred to an adjacent room and place in the center square of an open-field box for a 5 min test. On day 2, the experiment was repeated, but the treatments were reversed for each rat. For instance, rats that received atmospheric gas challenge on day 1 received the hypercapnic gas challenge on day 2.\nAll rats received hypercarbic gas infusions as described in detail in Experiment 11. […] Blood pressure, heart rate, locomotor activity, number of fecal pellets and anxiety-like behavior were assessed as described in Experiment 11.\nDependent variables for analyses of cardiovascular responses (HR, MAP) and locomotor activity were analysed using a […], using gas infusion as the between-subjects factor and time as a within-subjects factor. Dependent variables for the number of fecal pellets and open-field anxiety test (i.e., time spent in each section, line crossings) were analysed using a one-way ANOVA with gas infusion in Experiment 11 and drug treatment in Experiment 12 as the between-subjects factors. […] Within-subjects comparisons were also made on the MAP and HR measures using a Dunnett's test for multiple comparisons with a single control using the 5 Min baseline measurement as the control. The alpha level was set at 0.05 in all cases."}, "control rats": {"tested_on": "control rats", "test": "Baseline behavior and cardiovascular activity in control rats", "conditions": "control rats (no 1-AG or NaLac), 30 mg/kg i.p., 30 min following injection", "description": "In experiments 4-6, rats were made panic vulnerable with 1-AG. 5 days after 1-AG onset, in a counterbalanced design, rats received intraperitoneal (i.p.) injections of treatment drug or vehicle 30 min prior to i.v. infusions. […] In experiment 5, baseline in an open field (OF) behavior test of anxiety was assessed (n=8) prior to 1-AG infusions. […] Immediately following the NaLac challenge, rats were placed in the OF test. […] In experiment 6,1-AG treated rats received an injection of an alternative ORX1 receptor antagonist (30 mg/kg SB408124 (N-(6,8-Difluoro-2-methyl-4-quinolinyl)-N′-(4-(dimethylamino)phenyl)urea), Tocris, in 0.2 ml/100 g volume DMSO, n=4) or vehicle (0.2 ml/100 g volume DMSO, n=6) 30 min prior to NaLac. In experiment 7, control rats (no 1-AG or NaLac treatment) were assessed in a SI test.\nAdult male Sprague-Dawley rats were anesthetized and surgically implanted with telemetrical probes to measure cardiovascular activity prior to and during lactate infusions. […] 1960, Tocris, in 0.2 ml/100 g volume DMSO, n=7] or vehicle (0.2 ml/100 g volume DMSO, n=7). Cardiovascular activity and SI tests were monitored 30 min following injection at similar time points."}, "[3]": {"conditions": "20% CO2, 30 mg/kg i.p. 30 min prior"}},
  "note": "“Also recorded” adds a separate entry of the source.",
  "data": [
    {"compound": "Cc1nc2ccc(NC(=O)Nc3ccnc4cccnc34)cc2o1", "note": "[SB334867, N-(2-Methyl-6-benzoxazolyl)-N′-1,5-naphthyridin-4-yl urea]", "values": [
      {"measurement": "grooming in defensive burying test", "setting": "[1]; 30 mg/kg i.p.", "value": "No differences were detected"},
      {"measurement": "rearing in defensive burying test", "setting": "[1]; 30 mg/kg i.p.", "value": "No differences were detected"},
      {"measurement": "time spent near probe in defensive burying test", "setting": "[1]; 30 mg/kg i.p.", "value": "No differences were detected"},
      {"measurement": "NaLac-induced freezing (immobility) in defensive burying test", "setting": "[1]; 30 mg/kg i.p. 30 min prior, 30 mg/kg", "value": "completely blocked; also recorded: blocks"},
      {"measurement": "number of times crossed line dividing halves of test cage (mid-line crossings)", "setting": "[1]; 30 mg/kg i.p., sedation indicator, 30 mg/kg", "value": "No differences were detected"},
      {"measurement": "hypercarbic gas-induced changes in MAP (pressor response)", "setting": "[2]; 20% CO2/normoxic gas 5 min, 30 mg/kg i.p. 30 min prior", "value": "attenuated"},
      {"measurement": "hypercarbic gas-induced bradycardia", "setting": "[2]; 20% CO2/normoxic gas 5 min, 30 mg/kg i.p. 30 min prior, 30 mg/kg", "value": "without altering; also recorded: had no effect"},
      {"measurement": "hypercarbic gas-induced increase in numbers of fecal pellets", "setting": "[2]; [3]", "value": "attenuated"},
      {"measurement": "locomotor responses over time prior to, during or after hypercarbic gas", "setting": "[2]; [3]", "value": "Neither the vehicle nor SB334867 treated rats had a change in locomotor responses"},
      {"measurement": "locomotor activity prior to hypercarbic gas infusion", "setting": "[2]; baseline, 30 mg/kg i.p., vs vehicle-treated rats", "value": "higher"},
      {"measurement": "HR in control rats", "setting": "control rats", "value": "had no effect; also recorded: does not alter; also recorded: did not alter"},
      {"measurement": "MAP in control rats", "setting": "control rats", "value": "had no effect; also recorded: does not alter; also recorded: did not alter"}
    ]}
  ]
}
